{"source": "paper PMC12059162", "about": "(Scientific Reports, 2025)", "key": {"PANC-1 cells [1]": {"tested_on": "PANC-1 cells", "experiment": "Annexin-V/7AAD early and late apoptosis flow cytometry", "type": "cell-based, human", "conditions": "PANC-1, 0.5 µΜ, 72 h", "procedure": "For apoptosis measurements, Annexin-V positive/7AAD (7-Aminoactinomycin D) negative, early apoptotic and Annexin-V/ 7AAD double positive, late apoptotic cells were differentiated using a BD FACSCalibur (BD FACSCalibur, Becton-Dickinson, San Jose, CA, USA) flow cytometer[49],[50]. […] After 24, 48, and 72 h treatment, cells were harvested with 300 µL TrypLE (Sigma Ltd. St. Louis, MO, USA). Fresh cell culture medium was then added to stop the effect of TrypLE and the harvested cells were centrifuged for 5 min (300 g). Then, the supernatant was removed, and cells were resuspended in 300 µL of Annexin binding buffer (Sony Biotechnology, Weybridge, UK). For labelling, 3–3 µL of Annexin-V-FITC (Sony Biotechnology, Weybridge, UK) and 7AAD (Sony Biotechnology, Weybridge, UK) were added, followed by 10 min incubation at room temperature in the dark. For flow cytometric analysis (BD FACSCalibur, Becton–Dickinson, San Jose, CA, USA), a minimum of 10^4 cells/sample was measured. Annexin-V was detected using the FL-1 channel (530/30), and 7AAD was detected using the FL-3 channel (670 LP). In each treatment group, 3 parallel samples were analysed. The results were evaluated using Flowing Software 2.5.1 (Turku Centre of Biotechnology, Turku, Finland)."}, "PANC-1 cells [2]": {"tested_on": "PANC-1 cells", "experiment": "Holographic microscopy morphometry (HoloMonitor M4)", "type": "cell-based, human", "conditions": "PANC-1, 0.5 µM, 72 h", "procedure": "To follow the morphometric changes, a holographic transmission microscope (HoloMonitor M4; Phase Holographic Imaging AB, Lund, Sweden) was used, which uses a laser to produce 3D images of the cells[51],[52]. This […] imaging technique allows us to monitor cell morphological changes in real-time. First, the cells were seeded at a concentration of 3.5 × 10^5 cells/flask/4000 µL cell culture medium. […] At least 5 images were taken from each culture dish, taking care to assess different fields of view. These images were evaluated using the microscope software (Hstudio M4). We assessed the average area and the average optical thickness of the cells."}, "[3]": {"conditions": "cited from earlier work"}, "in vitro [4]": {"experiment": "in vitro", "conditions": "human"}, "in vitro [5]": {"experiment": "in vitro", "conditions": "mouse"}, "MIA PaCa-2 cells [6]": {"tested_on": "MIA PaCa-2 cells", "experiment": "alamarBlue cell viability", "conditions": "Homo sapiens, MIA PaCa-2, 72 h"}, "A2058 cells": {"tested_on": "A2058 cells", "experiment": "alamarBlue cell viability", "conditions": "Homo sapiens, A2058, 72 h, read-out: Viability (%) after 72-h treatment"}, "EBC-1 cells": {"tested_on": "EBC-1 cells", "experiment": "alamarBlue cell viability", "conditions": "Homo sapiens, EBC-1, 72 h"}, "COLO-205 cells": {"tested_on": "COLO-205 cells", "experiment": "alamarBlue cell viability", "conditions": "Homo sapiens, COLO 205, 72 h, read-out: Viability (%) after 72-h treatment"}, "cleaved caspase-3": {"tested_on": "cleaved caspase-3", "experiment": "Human Apoptosis Array in PANC-1 cells", "conditions": "PANC-1, 0.5 µM, 72 h"}, "FADD": {"tested_on": "FADD", "experiment": "Human Apoptosis Array in PANC-1 cells", "conditions": "PANC-1, 0.5 µM, 72 h"}, "SMAC": {"tested_on": "SMAC", "experiment": "Human Apoptosis Array in PANC-1 cells", "conditions": "PANC-1, 0.5 µM, 72 h"}, "phospho-p53 (S392)": {"tested_on": "phospho-p53 (S392)", "experiment": "Human Apoptosis Array in PANC-1 cells", "conditions": "PANC-1, 0.5 µM, 72 h"}, "phospho-p53 (S46)": {"tested_on": "phospho-p53 (S46)", "experiment": "Human Apoptosis Array in PANC-1 cells", "conditions": "PANC-1, 0.5 µM, 72 h"}, "phospho-p53 (S15)": {"tested_on": "phospho-p53 (S15)", "experiment": "Human Apoptosis Array in PANC-1 cells", "conditions": "PANC-1, 0.5 µM, 72 h"}, "cIAP-1": {"tested_on": "cIAP-1", "experiment": "Human Apoptosis Array in PANC-1 cells", "conditions": "PANC-1, 0.5 µM, 72 h"}, "HSP60": {"tested_on": "HSP60", "experiment": "Human Apoptosis Array in PANC-1 cells", "conditions": "PANC-1, 0.5 µM, 72 h"}, "XIAP": {"tested_on": "XIAP", "experiment": "Human Apoptosis Array in PANC-1 cells", "conditions": "PANC-1, 0.5 µM, 72 h"}, "PANC-1 cells [7]": {"tested_on": "PANC-1 cells", "experiment": "Cell cycle analysis (PI, flow cytometry)"}, "MIA PaCa-2 cells [8]": {"tested_on": "MIA PaCa-2 cells", "experiment": "Cell cycle analysis (PI, flow cytometry)", "conditions": "MIA PaCa-2, 0.5 µM, 48 h"}, "PANC-1 cells [9]": {"tested_on": "PANC-1 cells", "experiment": "xCELLigence SP impedimetric cell viability", "conditions": "Homo sapiens, PANC-1, 72 h"}, "p53": {"tested_on": "p53", "experiment": "qPCR apoptotic gene expression in PANC-1 cells", "conditions": "PANC-1, 25 µM, 48 h, normalised to DMSO control"}, "TRAIL": {"tested_on": "TRAIL", "experiment": "qPCR apoptotic gene expression in PANC-1 cells", "conditions": "PANC-1, 25 µM, any of the time points (3-48 h)"}, "caspase-3/7": {"tested_on": "caspase-3/7", "experiment": "CellEvent Caspase-3/7 activity imaging in PANC-1 cells", "conditions": "PANC-1, 0.5 µM, 72 h, normalised to DMSO control (n = 1)"}, "[10]": {"conditions": "read-out: IC50 values (μM) 72 hours"}, "[11]": {"conditions": "read-out: Viability (%) after 72-h treatment"}}}
{"smiles": "Cc1ccccc1CN1C(=O)C2=C(CCN(Cc3ccccc3)C2)N2CCN=C12", "note": "[ONC201, reference compound]", "values": [{"measurement": "Apoptosis-inducing effect", "setting": "PANC-1 cells [1]", "value": "no apoptosis-inducing effect"}, {"measurement": "Effect on cell morphology", "setting": "PANC-1 cells [2]", "value": "did not affect cell morphology"}, {"measurement": "logP", "setting": "[3]", "value": 2.3}, {"measurement": "viability at 72 h, 0.37 µM", "setting": "in vitro [4]", "value": "115 ± 1.4", "unit": "%"}, {"measurement": "viability at 72 h, 8.6 µM", "setting": "in vitro [4]", "value": "88.3 ± 7.4", "unit": "%"}, {"measurement": "viability at 72 h, 25 µM", "setting": "in vitro [4]", "value": "74.9 ± 8.6", "unit": "%"}, {"measurement": "viability at 72 h, 0.5 µM", "setting": "in vitro [5]", "value": "99.4 ± 1.8", "unit": "%"}, {"measurement": "viability at 72 h, 10 µM", "setting": "in vitro [5]", "value": "89.2 ± 6.3", "unit": "%"}, {"measurement": "viability at 72 h, 25 µM", "setting": "in vitro [5]", "value": "89 ± 5.6", "unit": "%"}, {"measurement": "IC50", "setting": "MIA PaCa-2 cells [6]; [10]", "value": 1.12, "unit": "µM"}, {"measurement": "viability at 0.5 µM", "setting": "MIA PaCa-2 cells [6]; [11]", "value": "77.6 ± 2.3", "unit": "%"}, {"measurement": "viability at 10 µM", "setting": "MIA PaCa-2 cells [6]; [11]", "value": "44.6 ± 2", "unit": "%"}, {"measurement": "viability at 25 µM", "setting": "MIA PaCa-2 cells [6]; [11]", "value": "55 ± 1.6", "unit": "%"}, {"measurement": "viability at 0.5 µM", "setting": "A2058 cells", "value": "101 ± 1.7", "unit": "%"}, {"measurement": "viability at 10 µM", "setting": "A2058 cells", "value": "73.7 ± 4.5", "unit": "%"}, {"measurement": "viability at 25 µM", "setting": "A2058 cells", "value": "62.1 ± 8.7", "unit": "%"}, {"measurement": "IC50", "setting": "EBC-1 cells; [10]", "value": 5.72, "unit": "µM"}, {"measurement": "viability at 0.5 µM", "setting": "EBC-1 cells; [11]", "value": "101 ± 1.6", "unit": "%"}, {"measurement": "viability at 10 µM", "setting": "EBC-1 cells; [11]", "value": "47.1 ± 2.2", "unit": "%"}, {"measurement": "viability at 25 µM", "setting": "EBC-1 cells; [11]", "value": "45.5 ± 2", "unit": "%"}, {"measurement": "viability at 0.5 µM", "setting": "COLO-205 cells", "value": "97 ± 2.5", "unit": "%"}, {"measurement": "viability at 10 µM", "setting": "COLO-205 cells", "value": "69.7 ± 2.4", "unit": "%"}, {"measurement": "viability at 25 µM", "setting": "COLO-205 cells", "value": "71 ± 0.7", "unit": "%"}, {"measurement": "cleaved caspase-3 protein level", "setting": "cleaved caspase-3", "value": "significantly increased"}, {"measurement": "FADD protein level", "setting": "FADD", "value": "significantly increased"}, {"measurement": "SMAC protein level", "setting": "SMAC", "value": "significantly increased"}, {"measurement": "phospho-p53 (S392) protein level", "setting": "phospho-p53 (S392)", "value": "significantly increased"}, {"measurement": "phospho-p53 (S46) protein level", "setting": "phospho-p53 (S46)", "value": "significantly increased"}, {"measurement": "phospho-p53 (S15) protein level", "setting": "phospho-p53 (S15)", "value": "significantly increased"}, {"measurement": "cIAP-1 protein level", "setting": "cIAP-1", "value": "increase"}, {"measurement": "HSP60 protein level", "setting": "HSP60", "value": "increase"}, {"measurement": "XIAP protein level", "setting": "XIAP", "value": "increase"}, {"measurement": "Effect on cell cycle", "setting": "PANC-1 cells [7]; PANC-1, 0.5 µM, 48 h", "value": "did not have any influence"}, {"measurement": "Increase in cell number in the G2/M phase", "setting": "PANC-1 cells [7]; PANC-1, 10 and 25 µM, 72 h", "value": 2.1, "unit": "fold"}, {"measurement": "Effect on cell cycle", "setting": "MIA PaCa-2 cells [8]", "value": "did not have any influence"}, {"measurement": "IC50", "setting": "PANC-1 cells [9]; [10]", "value": 6.1, "unit": "µM"}, {"measurement": "viability at 0.5 µM", "setting": "PANC-1 cells [9]; [11]", "value": "105 ± 5.2", "unit": "%"}, {"measurement": "viability at 10 µM", "setting": "PANC-1 cells [9]; [11]", "value": "16 ± 2.4", "unit": "%"}, {"measurement": "viability at 25 µM", "setting": "PANC-1 cells [9]; [11]", "value": "10.2 ± 2.2", "unit": "%"}, {"measurement": "p53 mRNA expression", "setting": "p53", "value": 3.3, "unit": "fold"}, {"measurement": "TRAIL induction (mRNA)", "setting": "TRAIL", "value": "not detected"}, {"measurement": "Number of caspase-3/7 active cells, increase", "setting": "caspase-3/7", "value": 6.6, "unit": "fold"}]}
